We go through 4 molecules from patent US20080234173A1, “PRESERVATIVE COMPOSITIONS” (TAKASAGO INTERNATIONAL CORPORATION, priority 2007, published 2008).

The structures appear in SMILES notation. Entries after “also recorded” stand apart in the source; their conditions may differ.

The assay has as its system Pseudomonas aeruginosa ATCC 15442. In words: Anti-Bacterial Test Method: log reduction of bacterial colonies after 3 days exposure in water. It is filed as cell-based. The procedure: Materials were dissolved in ethanol (or deionized water in the case of water soluble preservatives) to a concentration of 100 mg/ml. 30 μl of this solution added to 3 ml deionized water gave a final concentration of 0.1%. (If necessary, solutions are sonicated for 15 minutes and allowed to equilibrate back to ambient temperature.) Bacterial cultures were added to this solution, mixed on a vortex mixer and a dock started. After 3 days, an aliquot is sampled and added to a D/E (Dey/Engley) neutralization broth (marketed by Becton and Dickinson Cγ) and plated onto solid media. Bacterial colonies are counted after overnight incubation. The selected indicator microorganism was Pseudomonas aeruginosa ATCC 15442.
All results are quoted as the reduction in activity expressed as a logarithm to the base 10 measured after 3 days incubation and compared with the inocculum unless otherwise noted.
All percentages are quoted as weight per unit volume (e.g. g/ml) unless indicated otherwise.

As to `OCc1ccccc1` [Benzyl alcohol], the “Log Reduction after 3 days” value (0.025% Benzyl alcohol alone) was 0.2 log. Consider `Cl/C=C\C[N+]12CN3CN(CN(C3)C1)C2.[Cl-]` [Dowicil 200, cis-1-3-chloroallyl-3,5,7-triaza-1-azoniaadamantane chloride], for which the “log reduction, compared with the ethanol solvent control” value (0.05% Dowicil 200 alone) is given as 1.3 log. In addition, the “log reduction after 3 days vs Inocculum” value (0.05% Dowicil (line of Test Example 14 without fragrance)) is 0.7 log. On to `CCOC(=O)c1ccccc1C(=O)OCC` [diethyl phthalate], for which, where the note is “0.1% or 0.2% diethyl phthalate added to fragrance ingredient + preservative mixture”, the “effect of addition of diethyl phthalate on antibacterial / preservative efficacy” value is “detrimental to antibacterial efficacy; also recorded: detrimental to preservative efficacy”. As to `OCCOc1ccccc1` [phenoxyethanol, 2-Phenoxyethanol], for the setting “0.1% phenoxyethanol alone”, the “log reduction, compared with the ethanol solvent control, after 3 days” value is listed as 0.4 log.
